From PubChem BioAssay (NCI) come the findings set out here.

Common to all, as to assay: NCI-60 cell line screen, 48 h
Experiment [1] has as its system HCT-15 colon.
Experiment [2] relates to MDA-MB-435.
The test system of experiment [3] is OVCAR-3 ovarian.
Experiment [4] concerns PC-3 prostate.
Experiment [5] concerns SF-268 CNS.
In experiment [6] the test system is SN12C renal.
Experiment [7] relates to SW-620 colon.
Experiment [8] concerns UACC-257 melanoma.
Experiment [9] deals with UACC-62 melanoma.
Experiment [10] concerns HL-60(TB) leukemia.

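These data come from cells grown in 96-well plates and exposed to compound for 48 hours at five concentrations. GI50 marks 50% less growth. TGI: concentration producing complete growth inhibition.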 Bounds are passed on as bounds.

For `COc1ccc(-c2ccc(-c3ccc(C(=N)N)nc3)s2)cc1`, the GI50 in [1] is 1.27 µM; in [2], 1.73 µM; in [3], 1.82 µM; in experiment [4], 1.68 µM; in experiment [5] it was 1.76 µM; in experiment [6], 1.83 µM. The GI50 in [7] is 0.43 µM; in experiment [8] it was 1.8 µM; in experiment [9], 1.81 µM. The TGI in experiment [1] is 2.7 µM; in experiment [2], 3.11 µM; in experiment [3] it was 3.27 µM; in experiment [4] it was 3.31 µM; in [5] it was 3.28 µM; in [6] it was 3.68 µM. Moreover, the results for the TGI in experiment [7], in [8] and in experiment [9] were 1.7 µM, 3.51 µM and 3.38 µM, respectively.
Turning to `COc1ccc2c(c1)CC[C@@H]1[C@@H]2CC[C@]2(C)C(=O)C3(CCCCC3)C[C@@H]12`, the GI50 in [1], in experiment [10], in experiment [2], in experiment [3], in experiment [4] and in experiment [6] was above 100 µM throughout. The figures for the GI50 in experiment [7], in experiment [8] and in experiment [9] were above 100 µM, 44.8 µM and above 100 µM, respectively. For the same molecule, the TGI in experiment [1], in experiment [10], in experiment [2], in experiment [3], in [4] and in [6] was above 100 µM each time. Besides, the TGI in [7], in experiment [8] and in experiment [9] was above 100 µM each time.
With `N#CC(C#N)=CN1CCN(C(=O)c2ccco2)C1=S`, the GI50 in [1] is 5.23 µM; in experiment [10], 19.8 µM; in [2], 5.28 µM; in [3], 11.2 µM; in [4], 17.3 µM; in experiment [5], 31.4 µM. Further, the figures for the GI50 in experiment [6], in experiment [7] and in [9] were 3.12 µM, 5.62 µM and 8.81 µM, respectively. In addition, the TGI in experiment [1] was above 100 µM; in [10], 58.1 µM; in [2] it was 40 µM; in experiment [3], above 100 µM; in [4], above 100 µM; in experiment [5], 89.4 µM. For the same molecule, the TGI was 16.5 µM in experiment [6], above 100 µM in experiment [7] and 25.4 µM in [9].
For the molecule `O=C(O)C(=C\c1ccc2c(c1)OCO2)/C(=C/c1ccc2c(c1)OCO2)C(=O)O`, the TGI in experiment [1], in [10], in experiment [2], in experiment [3], in experiment [4] and in experiment [6] was above 100 µM in each case. Besides, the TGI in [7], in [8] and in [9] was above 100 µM in each case.
`Cc1c(C#N)c2nnn(C)c(=O)n2c1-c1ccccc1`: the TGI in experiment [1], in experiment [10], in experiment [2], in [3], in experiment [4] and in experiment [5] was above 100 µM in each case. For the same molecule, the TGI in [6], in [7], in experiment [8] and in experiment [9] was above 100 µM throughout.
